Laboratory results: patent publication US10646469B2, “Substituted indole derivatives as dengue viral replication inhibitors” (Janssen Pharmaceuticals, Inc., priority 2016, dated 2020)

Columns and labels:
DENV-2 strain 16681 = assay: Tetravalent RT-qPCR assay, serotype 2; assay type: cell-based; conditions: Dengue virus, DENV2, 72 h; RT-qPCR serotype 2 16681, Protocol A, Vero cells, day 3
Experimental: (§1) The antiviral activity of the compounds of the invention was tested against DENV-1 strain TC974 #666 (NCPV), DENV-2 strain 16681, DENV-3 strain H87 (NCPV) and DENV-4 strain H241 (NCPV) in a RT-qPCR assay. Therefore, Vero cells were infected with either DENV-1, or -2, or -3, or -4 in the presence or absence of test compounds. At day 3 post-infection, the cells were lysed and cell lysates were used to prepare cDNA of both a viral target (the 3′UTR of DENV; Table 2) and cellular reference gene (β-actin, Table 2). Subsequently, a duplex real time PCR was performed on a Lightcycler480 instrument. The generated Cp value is inversely proportional to the amount of RNA expression of these targets. Inhibition of DENV replication by a test compound results in a shift of Cp's for the 3′UTR gene. On the other hand, if a test compound is toxic to the cells, a similar effect on β-actin expression will be observed. The comparative ΔΔCp method is used to calculate EC50, which is based on the relative gene expression of the target gene (3′UTR) normalized with the cellular housekeeping gene (β-actin). In addition, CC50 values are determined based on the Cp values acquired for the housekeeping gene β-actin.
(§2) The culture medium consisted of minimal essential medium supplemented with 2% of heat-inactivated fetal calf serum, 0.04% gentamycin (50 mg/mL) and 2 mM of L-glutamine. Vero cells, obtained from ECACC, were suspended in culture medium and 75 μL/well was added in 96-well plates (10000 cells/well), which already contain the antiviral compounds. […] In addition, each plate contains wells which are assigned as virus controls (containing cells and virus in the absence of compound) and cell controls (containing cells in the absence of virus and compound). Once the cells were added in the plates, the plates were incubated in a fully humidified incubator (37° C., 5% CO2) until the next day. Dengue viruses serotype-1, 2, 3 and 4 were diluted in order to obtain a Cp of ˜22-24 in the assay. Therefore, 25 μL of virus suspension was added to all the wells containing test compound and to the wells assigned as virus control. In parallel, 25 μL of culture medium was added to the cell controls. Next, the plates were incubated for 3 days in a fully humidified incubator (37° C., 5% CO2). After 3 days, the supernatant was removed from the wells and the cells were washed twice with ice-cold PBS (˜100 μL). The cell pellets within the 96-well plates were stored at −80° C. for at least 1 day. Next, RNA was extracted using the Cells-to-CT™ lysis kit, according to the manufacturer's guideline (Life Technologies). The cell lysates can be stored at −80° C. or immediately used in the reverse transcription step.
(§3) In preparation of the reverse transcription step, mix A (table 3A) was prepared and 7.57 μL/well was dispensed in a 96-well plate. After addition of 5 μL of the cell lysates, a five minute denaturation step at 75° C. was performed (table 3B). Afterwards, 7.43 μL of mix B was added (table 3C) and the reverse transcription step was initiated (table 3D) to generate cDNA.
(§4) Finally, a RT-qPCR mix was prepared, mix C (table 4A), and 22.02 μL/well was dispensed in 96-well LightCycler qPCR plates to which 3 μL of cDNA was added and the qPCR was performed according to the conditions in table 4B on a LightCycler 480.
(§5) Using the LightCycler software and an in-house LIMS system, dose response curves for each compound were calculated and the half maximal effective concentration (EC50) and the half maximal cytotoxic concentration (CC50) were determined (Tables 5-8).

DENV-2 16681 strain = assay: DENV-2 antiviral assay (eGFP-labeled virus in Vero cells); assay type: cell-based, Dengue virus; conditions: DENV-2 16681 eGFP, MOI 0.5, 3 days
Experimental: The antiviral activity of all the compounds of the invention was tested against the DENV-2 16681 strain which was labeled with enhanced green fluorescent protein (eGPF). The culture medium consists of minimal essential medium supplemented with 2% of heat-inactivated fetal calf serum, 0.04% gentamycin (50 mg/mL) and 2 mM of L-glutamine. Vero cells, obtained from ECACC, were suspended in culture medium and 25 μL was added to 384-well plates (2500 cells/well), which already contain the antiviral compounds. Typically, these plates contain a 5-fold serial dilution of 9 dilution steps of the test compound at 200 times the final concentration in 100% DMSO (200 nL). […] Finally, each plate contains wells which are assigned as virus controls (containing cells and virus in the absence of compound), cell controls (containing cells in the absence of virus and compound) and medium controls (containing medium in the absence of cells, virus and compounds). To the wells assigned as medium control, 25 μL of culture medium was added instead of Vero cells. Once the cells were added to the plates, the plates were incubated for 30 minutes at room temperature to allow the cells to distribute evenly within the wells. Next, the plates were incubated in a fully humidified incubator (37° C., 5% CO2) until the next day. Then, DENV-2 strain 16681, labeled with eGFP, was added at a multiplicity of infection (MOI) of 0.5. Therefore, 15 μL of virus suspension was added to all the wells containing test compound and to the wells assigned as virus control. In parallel, 15 μL of culture medium was added to the medium and cell controls. Next, the plates were incubated for 3 days in a fully humidified incubator (37° C., 5% CO2). At the day of the read out, the eGFP fluorescence was measured using an automated fluorescence microscope at 488 nm (blue laser). Using an in-house LIMS system, inhibition dose response curves for each compound were calculated and the half maximal effective concentration (EC50) was determined. Therefore, the percent inhibition (I) for every test concentration is calculated using the following formula: I=100*([…])/(SVC−SCC); ST, SCC and SVC are the amount of eGFP signal in the test compound, cell control and virus control wells, respectively. The EC50 represents the concentration of a compound at which the virus replication is inhibited with 50%, as measured by a 50% reduction of the eGFP fluorescent intensity compared to the virus control. The EC50 is calculated using linear interpolation (Table 1).

DENV-3 strain H87 = assay: Tetravalent RT-qPCR assay, serotype 3; assay type: cell-based; conditions: Dengue virus, DENV3, 72 h; RT-qPCR serotype 3 H87, Protocol A, Vero cells, day 3
Experimental: as §1, §2, §3, §4, §5

DENV-1 strain TC974 #666 = assay: Tetravalent RT-qPCR assay, serotype 1; assay type: cell-based; conditions: Dengue virus, DENV1, 72 h; RT-qPCR serotype 1 TC974#666, Protocol A, Vero cells, day 3
Experimental: as §1, §2, §3, §4, §5

DENV-4 strain H241 = assay: Tetravalent RT-qPCR assay, serotype 4; assay type: cell-based; conditions: Dengue virus, DENV4, 72 h; RT-qPCR serotype 4 H241, Protocol A, Vero cells, day 3
Experimental: as §1, §2, §3, §4, §5

[1] = Cytotoxicity in RT-qPCR assay (Cp of housekeeping gene β-actin); assay type: cell-based; conditions: African green monkey
Experimental: as §1, §2, §5

Vero cells = assay: Toxicity on the same plates (ATPlite cell viability); conditions: Vero cells, same plates as DENV-2 antiviral assay
[2] = as above; conditions: African green monkey, CC50, Vero cells, same plates as DENV-2 antiviral assay
[3] = RT-qPCR serotype 1 TC974#666, Protocol A
[4] = RT-qPCR serotype 2 16681, Protocol A
[5] = RT-qPCR serotype 3 H87, Protocol A
[6] = RT-qPCR serotype 4 H241, Protocol A

SMILES | EC50 (DENV-2 strain 16681) [nM] | EC50 (DENV-2 16681 strain) [nM] | EC50 (DENV-3 strain H87) [nM] | EC50 (DENV-1 strain TC974 #666) [nM] | EC50 (DENV-4 strain H241) [nM] | CC50 at 3 days [1, 3] [nM] | CC50 at 3 days [1, 4] [nM] | CC50 at 3 days [1, 5] [nM] | CC50 at 3 days [1, 6] [nM] | CC50 (Vero cells) [nM] | CC50 [2] [nM]
COc1cc(NC(C(=O)c2c[nH]c3ccc(C(F)(F)F)cc23)c2ccc(F)cc2OC)cc(OCCO)c1 (single isomer, unassigned) [Compound 1B, 2-(4-fluoro-2-methoxyphenyl)-2-((3-(2-hydroxyethoxy)-5-methoxyphenyl)amino)-1-(5-(trifluoromethyl)-1H-indol-3-yl)ethanone] | 0.41 | 0.62 | 14 | 1.3 | 50 | 3300 | 3500 | 3200 | 2600 |  | 
COc1cc(NC(C(=O)c2c[nH]c3cc(F)c(C(F)(F)F)cc23)c2ccc(F)cc2OC)cc(OCCO)c1 (single isomer, unassigned) [Compound 3A, 2-(4-fluoro-2-methoxyphenyl)-1-(6-fluoro-5-(trifluoromethyl)-1H-indol-3-yl)-2-((3-(2-hydroxyethoxy)-5-methoxyphenyl)amino)ethanone] | 0.46 | 0.47 | 18 | 2.1 | 62 | > 2500 | 2600 | > 2500 | > 2500 | 2400 | 
COc1cc(NC(C(=O)c2c[nH]c3c(C)cc(C(F)(F)F)cc23)c2ccc(F)cc2OC)cc(OCCO)c1 (single isomer, unassigned) [Compound 4B, 2-(4-fluoro-2-methoxyphenyl)-2-((3-(2-hydroxyethoxy)-5-methoxyphenyl)amino)-1-(7-methyl-5-(trifluoromethyl)-1H-indol-3-yl)ethanone] | 0.36 | 0.46 | 9.2 | 1.4 | 51 | > 2500 | > 2400 | > 2500 | > 2100 | 2500 | 
COc1cc(NC(C(=O)c2c[nH]c3ccc(OC(F)(F)F)cc23)c2ccc(F)cc2OC)cc(OCCO)c1 (single isomer, unassigned) [Compound 5B, 2-(4-fluoro-2-methoxyphenyl)-2-((3-(2-hydroxyethoxy)-5-methoxyphenyl)amino)-1-(5-(trifluoromethoxy)-1H-indol-3-yl)ethanone] | 0.36 | 0.3 | 6 | 0.77 | 50 | > 2500 | 3200 | > 2500 | 2400 | 3300 | 
COc1cc(NC(C(=O)c2c[nH]c3cc(OC)c(OC(F)(F)F)cc23)c2ccc(F)cc2OC)cc(OCCO)c1 (single isomer, unassigned) [Compound 6A, 2-(4-fluoro-2-methoxyphenyl)-2-((3-(2-hydroxyethoxy)-5-methoxyphenyl)amino)-1-(6-methoxy-5-(trifluoromethoxy)-1H-indol-3-yl)ethanone] | 0.55 | 0.33 | 12 | 2.6 | 78 | > 2100 | 3900 | > 2500 | 1500 | > 2500 | 
COc1cc(NC(C(=O)c2c[nH]c3cc(F)c(OC(F)(F)F)cc23)c2ccc(F)cc2OC)cc(OCCO)c1 (single isomer, unassigned) [Compound 7B, 2-(4-fluoro-2-methoxyphenyl)-1-(6-fluoro-5-(trifluoromethoxy)-1H-indol-3-yl)-2-((3-(2-hydroxyethoxy)-5-methoxyphenyl)amino)ethanone] | 0.55 | 0.53 | 8.2 | 1.2 | 52 | > 2500 | > 2500 | > 2500 | 2100 | 2400 | 
COc1cc(NC(C(=O)c2c[nH]c3ccc(C(F)(F)F)cc23)c2ccc(Cl)cc2OC)cc(OCCO)c1 (single isomer, unassigned) [Compound 9A, 2-(4-chloro-2-methoxyphenyl)-2-((3-(2-hydroxyethoxy)-5-methoxyphenyl)amino)-1-(5-(trifluoromethyl)-1H-indol-3-yl)ethanone] |  | 12 |  |  |  |  |  |  |  |  | 3500
COc1cc(NC(C(=O)c2c[nH]c3ccc(OC(F)(F)F)cc23)c2ccc(Cl)cc2OC)cc(OCCO)c1 (single isomer, unassigned) [Compound 13A, 2-(4-chloro-2-methoxyphenyl)-2-((3-(2-hydroxyethoxy)-5-methoxyphenyl)amino)-1-(5-(trifluoromethoxy)-1H-indol-3-yl)ethanone] | 0.2 | 0.14 | 3.5 | 0.51 | 20 | 1200 | 2600 | > 2500 | > 2500 |  | 
COc1cc(NC(C(=O)c2c[nH]c3cc(F)c(OC(F)(F)F)cc23)c2ccc(Cl)cc2OC)cc(OCCO)c1 (single isomer, unassigned) [Compound 15A, 2-(4-chloro-2-methoxyphenyl)-1-(6-fluoro-5-(trifluoromethoxy)-1H-indol-3-yl)-2-((3-(2-hydroxyethoxy)-5-methoxyphenyl)amino)ethanone] |  | 9.9 |  |  |  |  |  |  |  |  | 3800
